System: 439559-082-T-J2-PDC spheroids viability
Test: Anticancer human tumor 439559-082-T-J2-PDC patient-derived colon adenocarcinoma cell line growth inhibition [GQUAD]
Conditions: for IC50: curve of first compound; for viability, T/C: stronger effect = lower value
In short: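 Viability of tumor cells grown as complex spheroids with endothelial and stromal cells, exposed to drug combinations. Top concentration at or near clinical Cmax (else 10 microM), diluted in half-log increments.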

[1] = second compound 0.0316 µM, first compound 0.000999 µM
[2] = second compound 0.0316 µM, first compound 0.00316 µM
[3] = second compound 0.0316 µM, first compound 0.00999 µM
[4] = second compound 0.0316 µM, first compound 0.0316 µM
[5] = second compound 0.0316 µM, first compound 0.0999 µM
[6] = second compound 0.0316 µM, first compound 0.316 µM
[7] = second compound 0.1 µM, first compound 0.000999 µM
[8] = second compound 0.1 µM, first compound 0.00316 µM
[9] = second compound 0.1 µM, first compound 0.00999 µM
[10] = second compound 0.1 µM, first compound 0.0316 µM
[11] = second compound 0.1 µM, first compound 0.0999 µM
[12] = second compound 0.1 µM, first compound 0.316 µM
[13] = second compound 0.316 µM, first compound 0.000999 µM
[14] = second compound 0.316 µM, first compound 0.00316 µM
[15] = second compound 0.316 µM, first compound 0.00999 µM
[16] = second compound 0.316 µM, first compound 0.0316 µM
[17] = second compound 0.316 µM, first compound 0.0999 µM
[18] = second compound 0.316 µM, first compound 0.316 µM
[19] = second compound 1 µM, first compound 0.000999 µM
[20] = second compound 1 µM, first compound 0.00316 µM
[21] = second compound 1 µM, first compound 0.00999 µM
[22] = second compound 1 µM, first compound 0.0316 µM
[23] = second compound 1 µM, first compound 0.0999 µM
[24] = second compound 1 µM, first compound 0.316 µM
[25] = second compound 3.16 µM, first compound 0.000999 µM
[26] = second compound 3.16 µM, first compound 0.00316 µM
[27] = second compound 3.16 µM, first compound 0.00999 µM
[28] = second compound 3.16 µM, first compound 0.0316 µM
[29] = second compound 3.16 µM, first compound 0.0999 µM
[30] = second compound 3.16 µM, first compound 0.316 µM
[31] = second compound 10 µM, first compound 0.000999 µM
[32] = second compound 10 µM, first compound 0.00316 µM
[33] = second compound 10 µM, first compound 0.00999 µM
[34] = second compound 10 µM, first compound 0.0316 µM
[35] = second compound 10 µM, first compound 0.0999 µM
[36] = second compound 10 µM, first compound 0.316 µM
[37] = second compound 0.0316 µM, first compound 0.1 µM
[38] = second compound 0.0316 µM, first compound 1 µM
[39] = second compound 0.0316 µM, first compound 3.16 µM
[40] = second compound 0.0316 µM, first compound 10 µM
[41] = second compound 0.1 µM, first compound 0.1 µM
[42] = second compound 0.1 µM, first compound 1 µM
[43] = second compound 0.1 µM, first compound 3.16 µM
[44] = second compound 0.1 µM, first compound 10 µM
[45] = second compound 0.316 µM, first compound 0.1 µM
[46] = second compound 0.316 µM, first compound 1 µM
[47] = second compound 0.316 µM, first compound 3.16 µM
[48] = second compound 0.316 µM, first compound 10 µM
[49] = second compound 1 µM, first compound 0.1 µM
[50] = second compound 1 µM, first compound 1 µM
[51] = second compound 1 µM, first compound 3.16 µM
[52] = second compound 1 µM, first compound 10 µM
[53] = second compound 3.16 µM, first compound 0.1 µM
[54] = second compound 3.16 µM, first compound 1 µM
[55] = second compound 3.16 µM, first compound 3.16 µM
[56] = second compound 3.16 µM, first compound 10 µM
[57] = second compound 10 µM, first compound 0.1 µM
[58] = second compound 10 µM, first compound 1 µM
[59] = second compound 10 µM, first compound 3.16 µM
[60] = second compound 10 µM, first compound 10 µM
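Also: spheroids exposed to the agents for 7 days before readout.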
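For viability, T/C in this document: percent of luminescence signal in DMSO vehicle wells taken as 100% viability.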

`CCc1c2c(nc3ccc(O)cc13)-c1cc3c(c(=O)n1C2)COC(=O)[C@]3(O)CC` + Cc1[nH]c2ccc(F)cc2c1-c1nc2c3cccnc3c3ncccc3c2[nH]1 was tested, and the IC50 (second compound 0.0316 µM) was 223 nM, the IC50 (second compound 0.1 µM) was greater than 316 nM and the IC50 (second compound 0.316 µM) was greater than 316 nM. The IC50 (second compound 1 µM) was 227 nM, the IC50 (second compound 3.16 µM) was 85.4 nM and the IC50 (second compound 10 µM) was 167 nM. It also gave a viability, T/C [1] of 93.4%, a viability, T/C [2] of 90.6% and a viability, T/C [3] of 88.5%. The viability, T/C [4] was 78.6%, the viability, T/C [5] was 63.2% and the viability, T/C [6] was 44.2%. For the same molecule, the viability, T/C [7] was 102%, the viability, T/C [8] was 93.1% and the viability, T/C [9] was 73.2%. It also gave a viability, T/C [10] of 73.8%, a viability, T/C [11] of 65.8% and a viability, T/C [12] of 49.3%. It also gave a viability, T/C [13] of 109%, a viability, T/C [14] of 97.1% and a viability, T/C [15] of 84.5%. The viability, T/C [16] was 76.4%, the viability, T/C [17] was 70.2% and the viability, T/C [18] was 51.1%. For the same molecule, the viability, T/C [19] was 90.9%, the viability, T/C [20] was 79.8% and the viability, T/C [21] was 77.8%. The viability, T/C [22] was 70.7%, the viability, T/C [23] was 65.6% and the viability, T/C [24] was 43.6%. The viability, T/C [25] was 89.1%, the viability, T/C [26] was 74.3% and the viability, T/C [27] was 62.9%. The viability, T/C [28] was 65.6%, the viability, T/C [29] was 51.9% and the viability, T/C [30] was 32.5%. The viability, T/C [31] was 73%, the viability, T/C [32] was 75.3% and the viability, T/C [33] was 65.6%. For the same molecule, the viability, T/C [34] was 60.7%, the viability, T/C [35] was 63.1% and the viability, T/C [36] was 39%.

`O=C(c1cc(Cc2n[nH]c(=O)c3ccccc23)ccc1F)N1CCN(C(=O)C2CC2)CC1` + Cc1cnc(CNC(=O)c2c(=O)c3ccc(N4CCCN(C)CC4)nc3n3c2sc2ccccc23)cn1 showed an IC50 (second compound 0.0316 µM) greater than 10000 nM, an IC50 (second compound 0.1 µM) greater than 10000 nM and an IC50 (second compound 0.316 µM) greater than 10000 nM. The IC50 (second compound 1 µM) was greater than 10000 nM, the IC50 (second compound 3.16 µM) was greater than 10000 nM and the IC50 (second compound 10 µM) was greater than 10000 nM. For the same molecule, the viability, T/C [4] was 94%, the viability, T/C [37] was 99.1% and the viability, T/C [6] was 97.3%. For the same molecule, the viability, T/C [38] was 94%, the viability, T/C [39] was 96.8% and the viability, T/C [40] was 98.2%. For the same molecule, the viability, T/C [10] was 97%, the viability, T/C [41] was 87.7% and the viability, T/C [12] was 88.4%. For the same molecule, the viability, T/C [42] was 89.5%, the viability, T/C [43] was 101% and the viability, T/C [44] was 91.9%. For the same molecule, the viability, T/C [16] was 90.6%, the viability, T/C [45] was 93.2% and the viability, T/C [18] was 84.1%. The viability, T/C [46] was 85.5%, the viability, T/C [47] was 85.7% and the viability, T/C [48] was 78.8%. It also gave a viability, T/C [22] of 82.8%, a viability, T/C [49] of 75% and a viability, T/C [24] of 72.5%. It also gave a viability, T/C [50] of 73.1%, a viability, T/C [51] of 89.7% and a viability, T/C [52] of 81.7%. For the same molecule, the viability, T/C [28] was 75.5%, the viability, T/C [53] was 62.9% and the viability, T/C [30] was 68.8%. It also gave a viability, T/C [54] of 73.8%, a viability, T/C [55] of 74.9% and a viability, T/C [56] of 68.5%. The viability, T/C [34] was 68.3%, the viability, T/C [57] was 71.4% and the viability, T/C [36] was 69%. For the same molecule, the viability, T/C [58] was 68.8%, the viability, T/C [59] was 71.9% and the viability, T/C [60] was 61.8%.

In the case of `Cc1[nH]c2ccccc2c1CCNCc1ccc(/C=C/C(=O)NO)cc1` + Cc1[nH]c2ccc(F)cc2c1-c1nc2c3cccnc3c3ncccc3c2[nH]1, the IC50 (second compound 0.0316 µM) is reported as greater than 316 nM, the IC50 (second compound 0.1 µM) is reported as greater than 316 nM and the IC50 (second compound 0.316 µM) is reported as greater than 316 nM. The IC50 (second compound 1 µM) was greater than 316 nM, the IC50 (second compound 3.16 µM) was greater than 316 nM and the IC50 (second compound 10 µM) was greater than 316 nM. For the same molecule, the viability, T/C [1] was 97.3%, the viability, T/C [2] was 107% and the viability, T/C [3] was 92.6%. For the same molecule, the viability, T/C [4] was 85.9%, the viability, T/C [5] was 102% and the viability, T/C [6] was 97.9%. For the same molecule, the viability, T/C [7] was 120%, the viability, T/C [8] was 86.1% and the viability, T/C [9] was 107%. For the same molecule, the viability, T/C [10] was 92.9%, the viability, T/C [11] was 101% and the viability, T/C [12] was 105%. The viability, T/C [13] was 115%, the viability, T/C [14] was 91.1% and the viability, T/C [15] was 95.6%. For the same molecule, the viability, T/C [16] was 100%, the viability, T/C [17] was 91.6% and the viability, T/C [18] was 100%. For the same molecule, the viability, T/C [19] was 92.5%, the viability, T/C [20] was 88.8% and the viability, T/C [21] was 87.3%. For the same molecule, the viability, T/C [22] was 93.2%, the viability, T/C [23] was 91.9% and the viability, T/C [24] was 91.3%. The viability, T/C [25] was 84%, the viability, T/C [26] was 70.6% and the viability, T/C [27] was 87.9%. The viability, T/C [28] was 78.5%, the viability, T/C [29] was 90.2% and the viability, T/C [30] was 85.7%. For the same molecule, the viability, T/C [31] was 74%, the viability, T/C [32] was 80.9% and the viability, T/C [33] was 82.6%. The viability, T/C [34] was 83.2%, the viability, T/C [35] was 91.5% and the viability, T/C [36] was 83.3%.

In the case of `O=C(c1cc(Cc2n[nH]c(=O)c3ccccc23)ccc1F)N1CCN(C(=O)C2CC2)CC1` + Cc1[nH]c2ccc(F)cc2c1-c1nc2c3cccnc3c3ncccc3c2[nH]1, the IC50 (second compound 0.0316 µM) is reported as greater than 10000 nM, the IC50 (second compound 0.1 µM) is reported as greater than 10000 nM and the IC50 (second compound 0.316 µM) is reported as greater than 10000 nM. For the same molecule, the IC50 (second compound 1 µM) was greater than 10000 nM, the IC50 (second compound 3.16 µM) was greater than 10000 nM and the IC50 (second compound 10 µM) was greater than 10000 nM. The viability, T/C [4] was 100%, the viability, T/C [37] was 110% and the viability, T/C [6] was 91.5%. It also gave a viability, T/C [38] of 96.8%, a viability, T/C [39] of 102% and a viability, T/C [40] of 96.3%. The viability, T/C [10] was 103%, the viability, T/C [41] was 104% and the viability, T/C [12] was 94.9%. It also gave a viability, T/C [42] of 90.5%, a viability, T/C [43] of 103% and a viability, T/C [44] of 100%. The viability, T/C [16] was 103%, the viability, T/C [45] was 99.3% and the viability, T/C [18] was 105%. For the same molecule, the viability, T/C [46] was 102%, the viability, T/C [47] was 107% and the viability, T/C [48] was 89.9%. For the same molecule, the viability, T/C [22] was 105%, the viability, T/C [49] was 102% and the viability, T/C [24] was 98.3%. It also gave a viability, T/C [50] of 99.3%, a viability, T/C [51] of 105% and a viability, T/C [52] of 89%. The viability, T/C [28] was 90.8%, the viability, T/C [53] was 79% and the viability, T/C [30] was 92.7%. It also gave a viability, T/C [54] of 89.9%, a viability, T/C [55] of 98.8% and a viability, T/C [56] of 87.3%. The viability, T/C [34] was 88.2%, the viability, T/C [57] was 87.1% and the viability, T/C [36] was 86.2%. For the same molecule, the viability, T/C [58] was 76%, the viability, T/C [59] was 90.5% and the viability, T/C [60] was 89.5%.

From PubChem BioAssay AID2060510 (Molecular Pharmacology Branch, DTP, NCI, 2025)
